The values below come from US12428423B2, “1H-imidazo[4,5-h]quinazoline compound as protein kinase inhibitor” (SHENGKE PHARMACEUTICALS (JIANGSU) LTD., priority 2017, dated 2025).

The test system of one assay is neointimal formation. As to conditions: rats; cited from earlier work.
Another assay addresses CDK4/cyclin D1 (Homo sapiens (Human), UniProt P11802). The assay is described as follows: Biochemical kinase inhibitory assay, CDK4/cyclin D1. To be noted: recombinant CDK4/cyclin D1; in the presence of 10 μM ATP. The protocol: Potency determination in the biochemical kinase inhibitory assay. Kinase activity assay and IC50 determination. […] The kinase reaction was initiated by the addition of 1 μg (1.5 μM) of recombinant retinoblastoma protein, 5 μM ATP and 10μ Ci γ-32P-ATP. The reaction was incubated at 30° C. for 20 minutes, and the reaction was stopped by the addition of 2× Laemmli sample buffer, heated at 95° C. for three minutes, and dissolved in 12% acrylamide SDS-PAGE for autoradiography. The corresponding phosphorylated substrate protein bands were quantified using a densitometer (Bio-Rad). […] The reaction took place in the presence of 10 μM ATP.

For another assay, the target named is CDK6/cyclin D1 (Homo sapiens (Human), UniProt Q00534). As to the kind of experiment: Biochemical kinase inhibitory assay, CDK6/cyclin D1. As to conditions: in the presence of 10 μM ATP. On the procedure:
Potency determination in the biochemical kinase inhibitory assay. Kinase activity assay and IC50 determination. […] The kinase reaction was initiated by the addition of 1 μg (1.5 μM) of recombinant retinoblastoma protein, 5 μM ATP and 10μ Ci γ-32P-ATP. The reaction was incubated at 30° C. for 20 minutes, and the reaction was stopped by the addition of 2× Laemmli sample buffer, heated at 95° C. for three minutes, and dissolved in 12% acrylamide SDS-PAGE for autoradiography. The corresponding phosphorylated substrate protein bands were quantified using a densitometer (Bio-Rad). […] The compounds disclosed herein were tested in a similar manner for their inhibitory activities against CDK6/cyclin D1, CDK2/cyclin A, CDK5/cyclin P25, CDK9/cyclin Ti, CDK7/cyclin H and CDK19/cyclin C. […] The reaction took place in the presence of 10 μM ATP.

Some results are limits rather than exact numbers.

Chain of CDK6/cyclin D1 (Q00534 whole entry): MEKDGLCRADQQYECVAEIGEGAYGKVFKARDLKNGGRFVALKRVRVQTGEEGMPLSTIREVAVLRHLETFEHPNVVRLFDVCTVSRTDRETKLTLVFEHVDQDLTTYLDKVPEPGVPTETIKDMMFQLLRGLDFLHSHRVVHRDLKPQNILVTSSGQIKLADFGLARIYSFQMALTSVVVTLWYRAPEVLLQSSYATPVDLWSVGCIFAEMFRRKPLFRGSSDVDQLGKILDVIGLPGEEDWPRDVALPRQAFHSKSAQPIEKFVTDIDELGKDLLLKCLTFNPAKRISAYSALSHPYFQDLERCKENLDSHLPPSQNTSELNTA
Chain of CDK6/cyclin D1 (P24385 whole entry partner): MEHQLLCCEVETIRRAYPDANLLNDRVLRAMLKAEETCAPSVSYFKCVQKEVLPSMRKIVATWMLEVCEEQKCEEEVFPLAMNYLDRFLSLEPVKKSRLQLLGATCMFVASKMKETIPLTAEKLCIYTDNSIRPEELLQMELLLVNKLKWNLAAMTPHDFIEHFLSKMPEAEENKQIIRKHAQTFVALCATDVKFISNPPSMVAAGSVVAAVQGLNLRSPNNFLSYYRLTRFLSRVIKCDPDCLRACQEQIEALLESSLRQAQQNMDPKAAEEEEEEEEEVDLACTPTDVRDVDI
Chain of CDK4/cyclin D1 (P11802 whole entry): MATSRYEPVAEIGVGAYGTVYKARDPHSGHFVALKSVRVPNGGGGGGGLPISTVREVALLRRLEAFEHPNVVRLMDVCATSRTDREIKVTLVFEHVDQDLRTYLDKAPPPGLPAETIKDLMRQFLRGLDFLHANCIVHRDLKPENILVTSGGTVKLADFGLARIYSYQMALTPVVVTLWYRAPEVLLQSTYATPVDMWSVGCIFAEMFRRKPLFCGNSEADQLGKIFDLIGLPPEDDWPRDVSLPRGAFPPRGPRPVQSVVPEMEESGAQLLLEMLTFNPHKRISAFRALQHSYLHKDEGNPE
Chain of CDK4/cyclin D1 (P24385 whole entry partner): as the sequence (P24385 whole entry partner) above

For `COc1ccc(CNc2nc(N(CCO)CCO)nc3c2ncn3C(C)C)cc1` [CVT-313], in the assay with neointimal formation, the “inhibition of neointimal formation” value is given as “more than 80%”.
Turning to `Cc1nc(Nc2ncc3ccc4ncn(C5CC5)c4c3n2)ccc1N1CCOCC1` [Compound I-51], the IC50 on CDK4/cyclin D1 and at CDK6/cyclin D1 was 10 to 50 nM each time.
For the compound `c1cc(Nc2ncc3ccc4ncn(C5CCC5)c4c3n2)ncc1N1CCNCC1` [Compound I-52], the IC50 on CDK4/cyclin D1 and at CDK6/cyclin D1 was 10 to 50 nM throughout.
For the compound `Cc1cc(Nc2ncc3ccc4ncn(C5CCC5)c4c3n2)ncc1N1CCNCC1` [Compound I-53], the IC50 on CDK4/cyclin D1 and on CDK6/cyclin D1 was 10 to 50 nM each time.
With `Cc1nc(Nc2ncc3ccc4ncn(C5CCC5)c4c3n2)ccc1N1CCNCC1` [Compound I-54], the IC50 at CDK4/cyclin D1 and on CDK6/cyclin D1 was 10 to 50 nM throughout.
As to `c1cc(Nc2ncc3ccc4ncn(C5CCC5)c4c3n2)ncc1N1CCOCC1` [Compound I-55], the IC50 on CDK4/cyclin D1 and on CDK6/cyclin D1 was 10 to 50 nM throughout.
`Cc1cc(Nc2ncc3ccc4ncn(C5CCC5)c4c3n2)ncc1N1CCOCC1` [Compound I-56]: the IC50 on CDK4/cyclin D1 and on CDK6/cyclin D1 was 10 to 50 nM in each case.
Take `c1cc(Nc2ncc3ccc4ncn(C5CCCC5)c4c3n2)ncc1N1CCNCC1` [Compound I-57]: the IC50 at CDK4/cyclin D1 and on CDK6/cyclin D1 was less than 2 nM in each case.
In the case of `Cc1cc(Nc2ncc3ccc4ncn(C5CCCC5)c4c3n2)ncc1N1CCNCC1` [Compound I-58], the IC50 on CDK4/cyclin D1 and on CDK6/cyclin D1 was 2 to 10 nM each time.
Turning to `Cc1nc(Nc2ncc3ccc4ncn(C5CCCC5)c4c3n2)ccc1N1CCNCC1` [Compound I-59], the IC50 on CDK4/cyclin D1 and at CDK6/cyclin D1 was 2 to 10 nM in each case.
Turning to `c1cc(Nc2ncc3ccc4ncn(C5CCCC5)c4c3n2)ncc1N1CCOCC1` [Compound I-60], the IC50 on CDK4/cyclin D1 and on CDK6/cyclin D1 was 2 to 10 nM throughout.
As for `Cc1cc(Nc2ncc3ccc4ncn(C5CCCC5)c4c3n2)ncc1N1CCOCC1` [Compound I-61], the IC50 on CDK4/cyclin D1 and on CDK6/cyclin D1 was 2 to 10 nM in each case.
Regarding `Cc1cc2ncn(C(C)C)c2c2nc(Nc3ccc(N4CCNCC4)cn3)ncc12` [Compound I-62], the IC50 at CDK4/cyclin D1 and on CDK6/cyclin D1 was 50 to 100 nM in each case.
As for `Cc1cc(Nc2ncc3c(C)cc4ncn(C(C)C)c4c3n2)ncc1N1CCNCC1` [Compound I-63], the IC50 at CDK4/cyclin D1 and at CDK6/cyclin D1 was 50 to 100 nM in each case.
For `Cc1nc(Nc2ncc3c(C)cc4ncn(C(C)C)c4c3n2)ccc1N1CCNCC1` [Compound I-64], the IC50 at CDK4/cyclin D1 and at CDK6/cyclin D1 was 50 to 100 nM each time.
In the case of `Cc1cc2ncn(C(C)C)c2c2nc(Nc3ccc(N4CCOCC4)cn3)ncc12` [Compound I-65], the IC50 at CDK4/cyclin D1 and on CDK6/cyclin D1 was 50 to 100 nM each time.
For the compound `Cc1cc2ncn(C(C)C)c2c2nc(Nc3ccc(N4CCOC(C)C4)cn3)ncc12` (centres unmarked) [Compound I-66], the concentration for half-maximal inhibition (IC50) on CDK4/cyclin D1 and at CDK6/cyclin D1 was 50 to 100 nM in each case.
Take `CC(C)n1cnc2c(Br)cc3cnc(Nc4ccc(N5CCNCC5)cn4)nc3c21` [Compound I-67]: the half-inhibitory concentration (IC50) on CDK4/cyclin D1 and at CDK6/cyclin D1 was 2 to 10 nM throughout.
On to `Cc1cc(Nc2ncc3cc(Br)c4ncn(C(C)C)c4c3n2)ncc1N1CCNCC1` [Compound I-68], for which the half-maximal inhibitory concentration (IC50) at CDK4/cyclin D1 and on CDK6/cyclin D1 was 2 to 10 nM each time.
In the case of `Cc1nc(Nc2ncc3cc(Br)c4ncn(C(C)C)c4c3n2)ccc1N1CCNCC1` [Compound I-69], the IC50 on CDK4/cyclin D1 and on CDK6/cyclin D1 was 2 to 10 nM in each case.
As for `CC(C)n1cnc2c(Br)cc3cnc(Nc4ccc(N5CCOCC5)cn4)nc3c21` [Compound I-70], the IC50 at CDK4/cyclin D1 and at CDK6/cyclin D1 was 2 to 10 nM throughout.
For the compound `CC(C)n1cnc2c(Br)cc3cnc(Nc4ccc(N5CCC6(CC5)CNC6)cn4)nc3c21` [Compound I-71], the IC50 at CDK4/cyclin D1 and on CDK6/cyclin D1 was 10 to 50 nM in each case.
Turning to `Cc1cc2cnc(Nc3ccc(N4CCNCC4)cn3)nc2c2c1ncn2C(C)C` [Compound I-72], the IC50 on CDK4/cyclin D1 and on CDK6/cyclin D1 was 2 to 10 nM throughout.
Turning to `Cc1cc(Nc2ncc3cc(C)c4ncn(C(C)C)c4c3n2)ncc1N1CCNCC1` [Compound I-73], the IC50 at CDK4/cyclin D1 and on CDK6/cyclin D1 was 2 to 10 nM each time.
Consider `Cc1nc(Nc2ncc3cc(C)c4ncn(C(C)C)c4c3n2)ccc1N1CCNCC1` [Compound I-74], for which the IC50 at CDK4/cyclin D1 and at CDK6/cyclin D1 was 2 to 10 nM each time.
With `Cc1cc2cnc(Nc3ccc(N4CCOCC4)cn3)nc2c2c1ncn2C(C)C` [Compound I-75], the IC50 at CDK4/cyclin D1 and at CDK6/cyclin D1 was 2 to 10 nM throughout.
Turning to `Cc1cc(Nc2ncc3cc(C)c4ncn(C(C)C)c4c3n2)ncc1N1CCOCC1` [Compound I-76], the IC50 at CDK4/cyclin D1 and at CDK6/cyclin D1 was 10 to 50 nM throughout.

As usually defined, the IC50 is the concentration needed to halve the response being measured.
